Here are results for two substances from patent US7563862B2, “Neural regeneration peptides and methods for their use in treatment of brain damage” (Neuren Pharmaceuticals Limited, priority 2001, dated 2009).

Several values for one entry are separate records, joined by “and”; a condition that tells them apart may be missing. Identical values can stand only once. Ends that are not written are not given here.

For experiment [1], the system named is thalamic parvalbumin-ir neurons. In words: BrdU/parvalbumin proliferation within thalamocortical OTCs. The class given is cell-based, rat. Particulars: 3 nM. As to the method: Thalamocortical OTCs from rats, as described above in Examples 3 and 4 were incubated at the start of cultivation with 2 μM of BrdU that was removed after 24 hours of cultivation time. OTCs were fixed in 4% paraformaldehyde in 0.1 M phosphate buffer (pH 7.4). Blocking was done in 0.4% Triton and 10% normal goat serum in PBS for 30 minutes. Subsequently the cultures were treated for 30 minutes in 2N HCl at 37° C. and neutralized by 0.1 M Na2B4O7 for 2×5 minutes. Internal peroxidase activity was prevented by 5 minute treatment of the OTCs in 1% H2O2 (only in case of the PAP reaction). Primary antibody (mouse anti-BrdU 1/50-Sigma) reaction was done overnight in 0.4% Triton, 2% BSA in PBS.
Biotinylated goat anti-mouse IgG was applied (1/200 for 2 h) with the subsequent application of the avidin biotin horseradish peroxidase system and the final DAB-detection (0.05%); 0.009% H2O2 enhanced by 0.025% cobalt chloride and 0.02% nickel ammonium sulphate. BrdU-positive nuclei become black stained. […] For double fluorescence detection, mouse anti-BrdU IgG and rabbit anti-parvalbumin IgG (or rabbit anti-calretinin 1/1000) were given simultaneously after the neutralisation step and anti-parvalbumin antibody binding was detected by the biotin-streptavidin/Cy2 detection system while the occurrence of BrdU was monitored by an anti-mouse/Cy3 IgG. […]

The subject of the next experiment is GFAP-positive astrocytes. The experiment in a line: astrocyte proliferation (GFAP/BrdU) in thalamocortical OTC cell bridge. Format: cell-based, rat. How it is done:
FIG. 12 depicts the specificity of the proliferation induced by NRP-1 (SEQ ID NO: 2). We tested the proliferation status of astroglia by monitoring the expression patterns for GFAP and BrdU-incorporation. Thalamocortical OTCs were supplemented with 3 nM highly purified migration-inducing factor and fixed following 4 days in vitro. FIG. 12A (left panel) depicts non-proliferative GFAP-positive astrocytes (white arrows) accompanying the neuronal migration stream, with a subpopulation of astrocytes of proliferative character (FIG. 12B, right panel; white arrow heads). Approximately 30% of the astrocytes in close vicinity to the neuronal migration stream were of proliferative character. Bar: 50 μm.
We also investigated the effects of NRP-1 (SEQ ID NO:2) on the induction of proliferation within astrocytes in a qualitative way. […] Therefore we looked only at the newly formed cell bridge between the thalamic and cortical tissue 4 days after NRP administration.

The subject of a further experiment is mouse neural stem cells. In words: haptotactic migration assay, mouse neural stem cells. The class given is cell-based. As to the method:
NRPs were tested for migration-inducing/chemoattractive activity on mouse neural stem cells, EGF-dependent immortalized mouse neural stem cell line MEB5 and wild-type PC-12 cells in a haptotactic migration assay as described below.
Initial NRP Coating. Control wells of Transwell plates (Coming) with 12 μm pore size were coated in 1.5 ml of the BSA/PBS vehicle. Remaining plates were coated using various concentrations of NRPs ranging between 1-100 ng/ml (prepared in PBS containing 10 ug/ml BSA). The plates were then incubated at 37° C. for 1 hr to coat. Wells were then rinsed 2× with 1 ml sterile PBS.
Laminin ([…]) for MEB-5 cells, PDL (50 μg/ml)+Matrigel for mouse primary stem cells and fibronectin (25 ug/ml)+matrigel for PC-12 cells were used as extracellular matrix (ECM) coating for the cells. All ECM compounds were diluted in PBS. 1.5 ml of the ECM per well was incubated for 2 hrs at room temperature. The wells were then rinsed once with Iml serum-free media (e.g. NB/B27) followed by 1 ml PBS wash.
A 5 ug/mL PDL/PLL mixture (in PBS) was used to coat inserts. Subsequently the inserts were rinsed with MilliQ water.
Transferring to Media and Cell Seeding: Appropriate medium (MEB-5 cells: DMEM-high glucose+N2 (growth medium supplement from Invitrogen)+10 ng/biotin+2 mM L-glutamine, primary stem cells: NSA-medium from Euroclone and for PC-12 cells: NB/B27 medium) was transferred into the 12-well plates. […] Plates were fixed at 1-2 days in vitro (DIV).
Fixation: Inserts were discarded and wells fixed in successive dilutions of PFA (0.4, 1.2, 3 and 4%) for 3-5min in each dilution. […] The wells were rinsed and stored in PBS until counting.
A haptotactic migration assay was performed according to the description of Example 10 using rat NRP-9SD (SEQ ID NO:34) (4 nM) and mouse NRP-7SW (SEQ ID NO:24) (0.4 nM) as attractants in a Boyden chamber

For the substance “NRP-1: rat 16 amino acid neural regeneration peptide purified from hippocampal OTC supernatant, Tyr Asp Pro Glu ... Cys His-NH2 (YDPEAASAPGSGNPCH-NH2)”, in experiment [1] (5 days in vitro), the “parvalbumin-ir thalamic neurons co-localised with BrdU” value is 6.8±1.3% and 6.8%. In addition, the “enhanced proliferation of parvalbumin expressing neurons compared to controls” value in experiment [1] (vs defined medium alone) is recorded as “up to 150%”. Also, in the experiment with GFAP-positive astrocytes, the astroglial division entry is on record as “does not induce astroglial division”. For the same substance, the “astrocytes in close vicinity to the neuronal migration stream of proliferative character” value with GFAP-positive astrocytes (3 nM, 4 days in vitro) is on record as “Approximately 30%”.
For “SEPEARRAPGRKGGVVCASLAADW-NH2 [NRP-7 segment SW, 24-mer form of mouse NRP-7]”, the “more NSCs attracted to the culture dish bottom” value in the experiment with mouse neural stem cells (0.4 nM) is on record as 2 fold. For the same substance, the “more E-14 cell density compared with BSA-vehicle” value with mouse neural stem cells (10 ng/ml coating, 400,000 cells) is 35%. The “potency relative to SDF-1” value in the experiment on mouse neural stem cells (SDF-1 100 nM vs NRP-7SW 0.2 nM) was “about 500 times”.
